Measured values published in publication PMC12040169 (PLOS Biology, 2025).

Test: in vitro
Conditions: human, hela cells, % viability

SMILES	viability at 28.5 h, 10 µM [%]	viability at 28.5 h, 10 µM (bulk resorufin, single well) [%]
COc1ccc(C(C)C)cc1-c1nccnc1NCc1ccco1 [CBK036672]	98	
Cc1cc(NS(=O)(=O)c2cccc(Cl)c2C)n[nH]1 [CBK024382]	91.2	
COc1ccc(C2=NN(c3ccc([N+](=O)[O-])cc3)C(=O)/C2=C\NCCN2CCOCC2)cc1 [CBK264563]	114	
Oc1cccc(-c2cncc(NCCCN3CCOCC3)n2)c1 [CBK037858]	89.1	
COc1ccc2[nH]c3c(c2c1)CCN(C=O)C31CCCN(CCC#N)C1 (centres unmarked) [CBK039445]	107	
CC(=O)N[C@H]1CC[C@]2(C)CCC([C@H](C)C(=O)NC3CCCC3)[C@H](O)[C@H]2[C@@H]1C (some centres unmarked) [CBK289436]	79.6	
COCCN1C(=O)C2(CC(=O)N(CCCCC(C)C)C2=O)c2cc(OC)ccc21 (centres unmarked) [CBK075145]	109	
COC(=O)c1cc(C#N)c(=O)n(CC(O)COc2ccccc2)c1 (centres unmarked) [CBK304991]	99.3	
Cc1[nH]c2ccccc2c1-c1csc(-c2ccncc2)n1 [CBK264371]	96.8	
O=C(NCc1ccc(Cl)cc1)C1CCCN1c1nc(O)cc(C(F)(F)F)n1 (centres unmarked) [CBK003706]	115	
COc1cc(Cl)cc(/C=N/Nc2nc(Nc3ccc(C)c(Cl)c3)nc(N3CCOCC3)n2)c1O [CBK262436]	102	
O=C(Nc1ccncc1)c1cnc2cc(C(F)(F)F)ccc2c1O [CBK116633T]	92.1	
C=CCOc1ccc(CNc2cccc(C(=O)O)c2)cc1OC [CBK074468]	98.5	
Cn1c(N2CCOCC2)cc(=O)c2ccccc21 [CBK007775]	93.7	
CN(C)CCOCc1ncccc1OCCOC1CCCCO1 (centres unmarked) [CBK045662]	93.1	
O=S(=O)(Nc1cccc(OC(F)(F)F)c1)c1ccc(N2CCNCC2)c2ccccc12 [CBK003935C]	111	
O=C(Nc1cccc2cccnc12)c1sc2ccccc2c1Cl [CBK262132]	98.8	
COc1ccc(C2C(C(=O)c3ccc(C)cc3)=C(O)C(=O)N2CCN(C)C)cc1OC (centres unmarked) [CBK264463]	90.1	
O=C(c1ccco1)N1CCN(CC(=O)N2c3ccccc3OCC2c2ccccc2)CC1 (centres unmarked) [CBK239722]	89.9	
O=C(C1CCOCC1)N1CCCC(c2cc3cccnc3[nH]2)C1 (centres unmarked) [CBK284941]	109	
CCN1CCCC1CN(Cc1cnn(C)c1)Cc1ccco1 (centres unmarked) [CBK282470]	96.6	
COC(=O)c1ccc(/C=C/C2=CCN(C)CC2)cc1 [CBK283744]	94.5	
O=C(O)CC(NC(=O)c1ccccc1)c1ccco1 (centres unmarked) [CBK268843]	87.4	

SMILES	viability at 28.5 h, 10 µM [%]	viability at 28.5 h, 10 µM (bulk resorufin, single well) [%]
NCc1ccc(C(=O)N(CCc2cc(C(F)(F)F)cc(C(F)(F)F)c2)c2ccc(Cl)c(Cl)c2)cc1 [CBK008632T]	112	
Cc1nc(C2CCN(Cc3cccc(F)c3)CC2)ncc1C(=O)Nc1ccc(F)cc1 [CBK285668]	107	
COc1ccc(NC(=S)NC(=O)CN2C(=O)c3ccccc3C2=O)c([N+](=O)[O-])c1 [CBK267594]	114	
CC(=O)Nc1nc(-c2ccccc2C)ccc1C(=O)NC1CCCCC1 [CBK106327]	99	
CCN(CC)C(=O)CN1C(=O)C2(Nc3ccccc3C(=O)N2c2ccc(C)cc2)c2ccccc21 (centres unmarked) [CBK093478]	86	
CCn1nc(-c2ccc(Cl)cc2)c2c(=O)n(C)c(=O)[nH]c21 [CBK287845]	108	
COc1ccc(CCN2CCC(CNC(=O)NCc3ccccc3)CC2)cc1OC [CBK051511T]	92.3	
CCCCn1c(SCC(=O)NCC2(c3ccc4c(c3)OCCO4)CCCC2)n[nH]c1=O [CBK296736]	99.6	
CC1(C)C/C(=N/O)c2cc3c(nc2C1)CC(C)(C)C/C3=N\O [CBK261629]	106	
C(=C\c1ccccc1)/CN1CCN(CCCc2ccccc2)CC1 [CBK261897]	90	
Cc1ccc(S(=O)(=O)Cc2ccc(C(=O)NCc3ccco3)cc2)cc1 [CBK268630]	105	
Cc1cc(C)c2nc(-c3cccnc3)cc(C(=O)N3CCN(S(=O)(=O)c4ccc(F)cc4)CC3)c2c1 [CBK267726]	95	
O=c1cc(N2CCN(CC3(O)CCNC3)CC2)c(-c2ccccc2)n[nH]1 (centres unmarked) [CBK307088]	107	
Brc1ccc(-n2cc(-c3ccccc3)c3c(NCc4ccccn4)ncnc32)cc1 [CBK266427]	104	
OC(CSc1ccccc1)CN1CCN(Cc2ccc3c(c2)OCO3)CC1 (centres unmarked) [CBK074761]	87.2	
CC(=O)N1CCCc2cc(C(O)CN3CCCC(C)(C)C3)ccc21 (centres unmarked) [CBK282143]	94.3	
O=C(CN1CCCCC1)NCCNc1ccc([N+](=O)[O-])cc1Cl [CBK264922]	115	
CCCOc1ccc(S(=O)(=O)NCc2ccc3c(c2)OCO3)c2ccccc12 [CBK269059]	94.3	
CCOC(=O)c1c(NC(=O)CSc2nc[nH]n2)sc2c1CCC2 [CBK267225]	94.5	
CCn1nc(C)c(C(C)NC(=O)c2c3c(nn2CC)CCCC3)c1C (centres unmarked) [CBK282077]	85	
C[C@@H]1CN(Cc2ccco2)CCN1C(=O)c1nccc2ccccc12 [CBK285489]	99.8	
O=C1/C(=C2/Sc3ccccc3N2CCCS(=O)(=O)O)SC(=S)N1c1ccccc1 [CBK260954G]	94.5	
CCOC(=O)CC(=O)COc1nc2cc3c(nc2o1)CCCC3 [CBK269204]	89.8	

SMILES	viability at 28.5 h, 10 µM [%]	viability at 28.5 h, 10 µM (bulk resorufin, single well) [%]
O=c1[nH]c(=O)n([C@@H]2O[C@H](CO)[C@H](O)C2O)cc1Br (some centres unmarked) [CBK201180]	87.2	
O=[N+]([O-])c1ccccc1OCCCn1c2ccccc2c2ccccc21 [CBK264799]	92.1	
Cc1cc(C)nc(NCCC(=O)O)n1 [CBK270154]	89.1	
NC(=O)c1ccc(NCCCN2CCOCC2)c([N+](=O)[O-])c1 [CBK264443]	104	
Cc1cc(C)n(C2CCN(Cc3nc4ccccc4[nH]3)CC2)n1 [CBK281620]	103	
O=C(NCc1ccccc1)c1c(O)c2ccccc2n(Cc2ccccc2)c1=O [CBK291174]	91.6	
CCOC(=O)C1=NOC2COC3(CCN(c4ncccn4)CC3)OCC12 (centres unmarked) [CBK018602]	94.3	
c1ccc(N2CCN(c3cncc(-c4cccs4)n3)CC2)nc1 [CBK065502]	102	
O=C(c1cnc2ccccc2c1)N1CCC(F)CC1 [CBK200273]	102	
CC(=O)N1c2ccccc2C(C)=CC1C1CCCC(=O)C1 (centres unmarked) [CBK007219]	101	
O=C(NCCn1nc2c(cc1=O)CCCCC2)c1ccccc1 [CBK283278]	85.7	
CC(C)NS(=O)(=O)c1ccc(OCC(=O)Nc2ccc3c(c2)OCO3)c(Cl)c1 [CBK267919]	92.5	
Cc1oc2c(c1C(=O)NC(C)c1ccccn1)CCCC2 (centres unmarked) [CBK281825]	109	
CC(C)c1ccccc1NC(=O)NC(=O)C1CCN(CCc2ccc(C#N)cc2)CC1 [CBK035010]	90.3	
O=P(O)(CN1CCOCC1)CN1CCOCC1 [CBK260914]	97.6	
c1ccc2c(c1)OCC(COc1nccnc1OC1CCNCC1)O2 (centres unmarked) [CBK070766T]	102	
CN(C(=O)c1cccnc1)C(CC1CCCCC1)C1CCCCC1 (centres unmarked) [CBK015849]	99.1	
CCOc1ccc(Oc2ccc(C(F)(F)F)cc2NC(=O)CCCC(=O)O)cc1 [CBK296993]	90.7	
CCCn1ncc(CN2CCC3(CC2)CC(C(=O)O)N(C(C)=O)C3)c1C (centres unmarked) [CBK306612]	86.7	
O=C(CSc1ccc(Cl)cc1)Nc1cc(Cl)ccc1C(=O)O [CBK264217]	115	
Cc1cc(CNC(=O)c2cc3ccccc3oc2=O)c2ccccc2n1 [CBK269834]	94.2	
CSc1nnc(SCC(=O)N2CCC(C(F)(F)F)CC2)s1 [CBK057829]	111	
CCOc1ncccc1C(=O)OCc1cc2ccc(OC)cc2nc1Cl [CBK295289]	78.1	

SMILES	viability at 28.5 h, 10 µM [%]	viability at 28.5 h, 10 µM (bulk resorufin, single well) [%]
CC(=O)N1CCC(NC(=O)c2cccc(C(N)=O)c2)CC1 [CBK297747]	115	
O=C(O)C1C2CCC(O2)C1C(=O)NC1CCCCC1 (centres unmarked) [CBK286848]		85
CC(CNC(=O)c1cccn(CC(=O)Nc2ccc(F)cc2)c1=O)N1CCCCCC1 (centres unmarked) [CBK286123]	97.5	
CCc1ccc2[nH]c3nc(NN)nnc3c2c1 [CBK262734]	65.1	
Cc1ncsc1CCOc1cc(C(F)(F)F)ccn1 [CBK115785]	100	
Cc1ncccc1OC1(C(=O)NCc2n[nH]c3c2CCC3)CCNCC1 [CBK307057]	101	
Cn1nccc1CN1CCOC(c2nc(C(C)(C)C)cs2)C1 (centres unmarked) [CBK304690]	93.7	
Cc1nc(CC(=O)N2CCOC(c3ccc(F)cc3)C2)cs1 (centres unmarked) [CBK305759]	106	
O=C(NC[C@H]1C[C@@H]2CC[N@]1C[C@@H]2CN1CCN(c2ccccn2)CC1)Nc1ccsc1 [CBK289113]	101	
CCC(=O)Nc1sc2c(c1-c1nc3ccccc3s1)CCCC2 [CBK287324]	91.7	
Cc1ccc2ccc(S(=O)(=O)NCc3cccnc3)cc2c1 [CBK262072]	98.8	
CCOC(=O)c1c(-c2ccc(Cl)cc2)csc1NC(=O)CCCC(=O)O [CBK296929]	91	
NC(=O)CC1C=CS(=O)(=O)C1 (centres unmarked) [CBK019653]	76.7	
COc1cc2c(cc1NS(=O)(=O)N1CCCCC1)oc1ccccc12 [CBK268355]	85.8	
COC(=O)CCC(=O)Nc1cccc([N+](=O)[O-])c1 [CBK261345]	95.4	
O=S(=O)(c1ccc(F)cc1)N1CCCC1c1cccc(Cc2ccccc2)n1 (centres unmarked) [CBK286231]	97.3	
N#Cc1ccc(NCc2ccccc2CN2CCCC2CO)cn1 (centres unmarked) [CBK304077]	97.9	
CN(Cc1ccco1)C(=O)NC1CCCc2c1cnn2CCO (centres unmarked) [CBK306290]	108	
CN(C)C(=O)C1CN(C(=O)C(C)(C)c2ccccc2F)C1 [CBK281970]	113	
N#CC1=C(N)Oc2[nH]nc(-c3cccs3)c2C1c1ccco1 (centres unmarked) [CBK266088]	99	
